Measurements: PubChem BioAssay AID1259407 (Chemical Carcinogenesis Research Information System (CCRIS), 2018)
Active and inactive are the calls of the source. No rule for the calls is given here.

Tested on: CCRIS mutagenicity, Ames/micronucleus/aberration tests
Assay: CCRIS mutagenicity studies

## Nc1cccc(N)c1
End Point: IN VITRO CHROMOSOMAL ABERRATIONS, Test System: CHINESE HAMSTER LUNG CELLS (CHL), Metabolic Activation: RAT, LIVER, S-9, KC-400
  mutagenic call: active; positive (structural changes)
End Point: IN VITRO CHROMOSOMAL ABERRATIONS, Test System: CHINESE HAMSTER OVARY CELLS (CHO), Metabolic Activation: NONE
  mutagenic call: active; positive (structural changes)
End Point: IN VITRO CHROMOSOMAL ABERRATIONS, Test System: CHINESE HAMSTER OVARY CELLS (CHO), Metabolic Activation: RAT, LIVER, S-9, AROCLOR 1254
  mutagenic call: inactive; negative
End Point: IN VITRO CHROMOSOMAL ABERRATIONS, Test System: CHL CELLS, Metabolic Activation: NONE
  mutagenic call: active; positive (structural changes)
End Point: IN VITRO CHROMOSOMAL ABERRATIONS, Test System: CHL CELLS, Metabolic Activation: RAT, LIVER, S-9, SODIUM PHENOBARBITAL AND 5,6-BENZOFLAVONE
  mutagenic call: active; positive (structural changes)
End Point: IN VITRO CHROMOSOMAL ABERRATIONS, Test System: CHL/IU CELLS, Metabolic Activation: NONE
  mutagenic call: active; positive (ploidy changes)
End Point: IN VITRO MICRONUCLEUS, Test System: CHL/IU CELLS, Metabolic Activation: NONE
  mutagenic call: active; positive
Test System: AMES SALMONELLA TYPHIMURIUM, Strain/Indicator: TA97, Metabolic Activation: HAMSTER, LIVER, S-9, AROCLOR 1254 (10%), Method: PREINCUBATION
  mutagenic call: active; positive
Test System: AMES SALMONELLA TYPHIMURIUM, Strain/Indicator: TA97, Metabolic Activation: NONE, Method: PREINCUBATION
  mutagenic call: inactive; negative
Test System: AMES SALMONELLA TYPHIMURIUM, Strain/Indicator: TA97, Metabolic Activation: RAT, LIVER, S-9, AROCLOR 1254 (4 OR 10%), Method: STANDARD PLATE
  mutagenic call: active; positive
Test System: AMES SALMONELLA TYPHIMURIUM, Strain/Indicator: TA97, Metabolic Activation: RAT, LIVER, S-9, AROCLOR 1254 (10%), Method: PREINCUBATION
  mutagenic call: active; positive
Test System: AMES SALMONELLA TYPHIMURIUM, Strain/Indicator: TA98(1,8-DNP6), Metabolic Activation: TOBACCO, TX1 CELLS, Method: PREINCUBATION
  mutagenic call: inactive; negative
Test System: AMES SALMONELLA TYPHIMURIUM, Strain/Indicator: TA98, Metabolic Activation: HAMSTER, LIVER, S-9, AROCLOR 1254 (10%), Method: PREINCUBATION
  mutagenic call: active; positive
Test System: AMES SALMONELLA TYPHIMURIUM, Strain/Indicator: TA98, Metabolic Activation: PEA APICAL BUD S-9, Method: PREINCUBATION
  mutagenic call: active; positive
Test System: AMES SALMONELLA TYPHIMURIUM, Strain/Indicator: TA98, Metabolic Activation: PEA APICAL BUD S-9, Method: STANDARD PLATE
  mutagenic call: active; positive
Test System: AMES SALMONELLA TYPHIMURIUM, Strain/Indicator: TA98, Metabolic Activation: PLANT (PERSEA AMERICANA) S-117, Method: STANDARD PLATE
  mutagenic call: active; positive
Test System: AMES SALMONELLA TYPHIMURIUM, Strain/Indicator: TA98, Metabolic Activation: PLANT (ZEA MAYS) S-9, Method: STANDARD PLATE
  mutagenic call: active; positive
Test System: AMES SALMONELLA TYPHIMURIUM, Strain/Indicator: TA98, Metabolic Activation: RAT, BLADDER, S-9, PCB, Method: FLUCTUATION TEST
  mutagenic call: active; positive
Test System: AMES SALMONELLA TYPHIMURIUM, Strain/Indicator: TA98, Metabolic Activation: RAT, LIVER, S-9, AROCLOR 1254 (10%), Method: PREINCUBATION
  mutagenic call: active; positive
Test System: AMES SALMONELLA TYPHIMURIUM, Strain/Indicator: TA98, Metabolic Activation: RAT, LIVER, S-9, AROCLOR 1254, Method: PREINCUBATION
  mutagenic call: active; positive
Test System: AMES SALMONELLA TYPHIMURIUM, Strain/Indicator: TA98, Metabolic Activation: RAT, LIVER, S-9, AROCLOR 1254, Method: STANDARD PLATE
  mutagenic call: active; positive
Test System: AMES SALMONELLA TYPHIMURIUM, Strain/Indicator: TA98, Metabolic Activation: RAT, LIVER, S-9, PCB, Method: PREINCUBATION
  mutagenic call: active; positive
Test System: AMES SALMONELLA TYPHIMURIUM, Strain/Indicator: TA98, Metabolic Activation: RAT, LIVER, S-9, PHENOBARBITAL AND 5,6-BENZOFLAVONE, Method: PREINCUBATION
  mutagenic call: active; positive
Test System: AMES SALMONELLA TYPHIMURIUM, Strain/Indicator: TA98, Metabolic Activation: S-9, Method: PREINCUBATION
  mutagenic call: active; positive
Test System: AMES SALMONELLA TYPHIMURIUM, Strain/Indicator: TA98, Metabolic Activation: TOBACCO, TX1 CELLS, Method: PREINCUBATION
  mutagenic call: active; positive
Test System: AMES SALMONELLA TYPHIMURIUM, Strain/Indicator: TA100, Metabolic Activation: HAMSTER, LIVER, S-9, AROCLOR 1254 (10%), Method: PREINCUBATION
  mutagenic call: active; positive
Test System: AMES SALMONELLA TYPHIMURIUM, Strain/Indicator: TA100, Metabolic Activation: NONE, Method: STANDARD PLATE
  mutagenic call: inactive; negative
Test System: AMES SALMONELLA TYPHIMURIUM, Strain/Indicator: TA100, Metabolic Activation: PEA APICAL BUD S-9, Method: PREINCUBATION
  mutagenic call: inactive; negative
Test System: AMES SALMONELLA TYPHIMURIUM, Strain/Indicator: TA100, Metabolic Activation: PEA APICAL BUD S-9, Method: STANDARD PLATE
  mutagenic call: inactive; negative
Test System: AMES SALMONELLA TYPHIMURIUM, Strain/Indicator: TA100, Metabolic Activation: RAT, BLADDER, S-9, PCB, Method: FLUCTUATION TEST
  mutagenic call: active; positive
Test System: AMES SALMONELLA TYPHIMURIUM, Strain/Indicator: TA100, Metabolic Activation: RAT, LIVER, S-9, AROCLOR 1254 (10%), Method: PREINCUBATION
  mutagenic call: active; positive
Test System: AMES SALMONELLA TYPHIMURIUM, Strain/Indicator: TA100, Metabolic Activation: RAT, LIVER, S-9, AROCLOR 1254, Method: PREINCUBATION
  mutagenic call: active; positive
Test System: AMES SALMONELLA TYPHIMURIUM, Strain/Indicator: TA100, Metabolic Activation: RAT, LIVER, S-9, PCB, Method: PREINCUBATION
  mutagenic call: active; positive
